In ChEMBL document CHEMBL5154787 (J Med Chem, 2022):

Tests used:
[1] = target: AP2-associated protein kinase 1 (Mus musculus, UniProt Q3UHJ0); experiment: Displacement of 3H-LP-927443 from AAK1 in C57BL6 mouse brain homogenate assessed as inhibition constant incubated for 1 hr by liquid scintillation counter analysis; format: tissue-based
[2] = Efflux ratio of permeability in human Caco-2 cells; format: ADME, cell-based
[3] = target: T1, AP2-associated protein kinase 1 (Homo sapiens, UniProt Q2M2I8); experiment: Inhibition of full length human AAK1 expressed in HEK293F cells assessed as suppression of AP2 phosphorylation measured after 3 hrs by Western blot analysis based cellular assay; format: cell-based
[4] = Metabolic stability in human liver microsomes assessed as parent compound remaining at 0.5 uM incubated for 10 mins in presence of NADPH by LC-MS/MS analysis; format: ADME, Microsome; conditions: read-out: Stability
[5] = Metabolic stability in mouse liver microsomes assessed as parent compound remaining at 0.5 uM incubated for 10 mins in presence of NADPH by LC-MS/MS analysis; format: ADME, Microsome; conditions: liver microsomes, read-out: Stability
[6] = Metabolic stability in rat liver microsomes assessed as parent compound remaining at 0.5 uM incubated for 10 mins in presence of NADPH by LC-MS/MS analysis; format: ADME, Microsome; conditions: read-out: Stability
Cytochrome P450 3A4 = Cytochrome P450 3A4 (Homo sapiens, UniProt P08684); experiment: Inhibition of CYP3A4 (unknown origin) incubated for 10 mins in presence of NADPH by LC-MS/MS analysis; format: ADME
[7] = target: T2, Cyclin-G-associated kinase (Homo sapiens, UniProt O14976); experiment: Inhibition of GAK (unknown origin)
T2 sequence (O14976 whole entry): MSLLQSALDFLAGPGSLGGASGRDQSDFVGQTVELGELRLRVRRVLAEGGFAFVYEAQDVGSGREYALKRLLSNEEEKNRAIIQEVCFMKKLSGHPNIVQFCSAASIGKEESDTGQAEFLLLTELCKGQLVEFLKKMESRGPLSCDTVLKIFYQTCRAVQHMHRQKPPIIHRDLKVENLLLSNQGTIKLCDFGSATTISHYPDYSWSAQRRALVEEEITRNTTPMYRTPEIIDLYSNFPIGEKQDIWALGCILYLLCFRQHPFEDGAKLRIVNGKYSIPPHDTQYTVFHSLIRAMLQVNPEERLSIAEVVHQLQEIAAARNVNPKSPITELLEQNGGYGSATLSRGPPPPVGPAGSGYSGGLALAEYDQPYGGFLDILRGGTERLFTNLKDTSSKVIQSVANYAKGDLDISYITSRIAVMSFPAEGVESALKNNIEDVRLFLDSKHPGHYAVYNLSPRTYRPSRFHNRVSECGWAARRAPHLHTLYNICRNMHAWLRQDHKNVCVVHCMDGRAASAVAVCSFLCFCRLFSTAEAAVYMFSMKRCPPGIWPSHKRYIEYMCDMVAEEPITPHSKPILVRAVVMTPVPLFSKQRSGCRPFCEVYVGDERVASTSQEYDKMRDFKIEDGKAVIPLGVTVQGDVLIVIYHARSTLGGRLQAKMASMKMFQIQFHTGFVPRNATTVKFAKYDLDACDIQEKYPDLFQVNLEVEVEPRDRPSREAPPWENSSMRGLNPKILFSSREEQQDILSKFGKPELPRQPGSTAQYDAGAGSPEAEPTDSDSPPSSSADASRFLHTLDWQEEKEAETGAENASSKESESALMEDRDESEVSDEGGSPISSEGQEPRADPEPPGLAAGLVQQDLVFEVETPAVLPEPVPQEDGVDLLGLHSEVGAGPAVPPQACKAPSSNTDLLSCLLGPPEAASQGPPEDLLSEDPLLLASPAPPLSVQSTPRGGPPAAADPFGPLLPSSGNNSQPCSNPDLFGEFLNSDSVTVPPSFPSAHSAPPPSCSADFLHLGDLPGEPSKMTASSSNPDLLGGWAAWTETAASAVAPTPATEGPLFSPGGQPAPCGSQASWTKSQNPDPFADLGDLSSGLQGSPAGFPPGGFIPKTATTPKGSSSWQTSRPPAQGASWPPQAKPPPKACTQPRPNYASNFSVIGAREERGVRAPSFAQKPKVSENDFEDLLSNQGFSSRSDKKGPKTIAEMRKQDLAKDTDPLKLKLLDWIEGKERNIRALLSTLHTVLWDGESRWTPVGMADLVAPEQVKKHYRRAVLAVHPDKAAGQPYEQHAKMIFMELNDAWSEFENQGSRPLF

[8] = target: Myosin light chain kinase 2, skeletal/cardiac muscle (Homo sapiens, UniProt Q9H1R3); experiment: Inhibition of MYLK2 (unknown origin)
[9] = target: TRAF2 and NCK-interacting protein kinase (Homo sapiens, UniProt Q9UKE5); experiment: Inhibition of TNIK (unknown origin)
[10] = target: MAP kinase-interacting serine/threonine-protein kinase 1 (Homo sapiens, UniProt Q9BUB5); experiment: Inhibition of MNK1 (unknown origin)
[11] = target: T1, AP2-associated protein kinase 1; experiment: Inhibition of bacterially expressed GST-Xa-tagged human AAK1 using 5-FAM-labelled Aha-KEEQSQITSQVTGQIGWR-NH2 peptide as substrate incubated for 3 hrs in presence of ATP by electrophoretic analysis
[12] = Cardiotoxicity in aortic ring (unknown origin) assessed as relaxation of phenylephrine induced aortic ring contraction at 10 uM incubated for 1 hr; format: toxicity, tissue-based, Aorta; design: scale not given: the % may be the effect or the level left; conditions: human
[13] = target: Citron Rho-interacting kinase (Homo sapiens, UniProt O14578); experiment: Inhibition of CRIK (unknown origin)
[14] = target: Rho-associated protein kinase 2 (Homo sapiens, UniProt O75116); experiment: Inhibition of ROCK2 (unknown origin)
[15] = target: BMP-2-inducible protein kinase (Homo sapiens, UniProt Q9NSY1); experiment: Inhibition of BIKE (unknown origin)
[16] = Drug concentration in STZ-induced diabetic peripheral neuropathic mechanical allodynia in overnight fasted Sprague-Dawley rat spinal cord at 1 mg/kg, po measured at 5.75 hrs post dose; format: ADME, organism-based; conditions: read-out: Ct
[17] = Plasma concentration in STZ-induced diabetic peripheral neuropathic mechanical allodynia in overnight fasted Sprague-Dawley rat at 1 mg/kg, po measured at 5.75 hrs post dose; format: ADME, organism-based
[18] = Ratio of drug concentration in spinal cord to plasma in STZ-induced diabetic peripheral neuropathic mechanical allodynia in overnight fasted Sprague-Dawley rat at 1 mg/kg, po measured at 5.75 hrs post dose; format: ADME, organism-based
[19] = Plasma concentration in CCI induced thermal hyperalgesia in Sprague-Dawley rat at 1 mg/kg, po measured at 5.5 hrs post dose; format: ADME, organism-based
[20] = Ratio of drug concentration in brain to plasma in STZ-induced diabetic peripheral neuropathic mechanical allodynia in overnight fasted Sprague-Dawley rat at 1 mg/kg, po measured at 5.5 hrs post dose; format: ADME, organism-based
Rattus norvegicus [21] = experiment: Analgesic activity in STZ-induced diabetic peripheral neuropathic mechanical allodynia in overnight fasted Sprague-Dawley rat assessed as reduction in pain response by measuring paw withdrawal latency at 1 mg/kg, po measured after 5 hrs by Hargreaves test relative to control; format: functional; design: scale not given: the % may be the effect or the level left
[22] = Brain concentration in STZ-induced diabetic peripheral neuropathic mechanical allodynia in overnight fasted Sprague-Dawley rat at 1 mg/kg, po measured at 5.5 hrs post dose; format: ADME, organism-based; conditions: read-out: Ct
Rattus norvegicus [23] = experiment: Analgesic activity in CCI induced thermal hyperalgesia in Sprague-Dawley rat assessed as reduction in thermal hyperalgesia by measuring paw withdrawal latency at 1 mg/kg, po measured after 5 hrs by Hargreaves test relative to control; format: functional; design: scale not given: the % may be the effect or the level left
[24] = Ratio of drug concentration in spinal cord to plasma in STZ-induced diabetic peripheral neuropathic mechanical allodynia in overnight fasted Sprague-Dawley rat at 1 mg/kg, po measured at 5.5 hrs post dose; format: ADME, organism-based
[25] = Ratio of drug concentration in brain to plasma in CCI induced thermal hyperalgesia in Sprague-Dawley rat at 1 mg/kg, po measured at 5.5 hrs post dose; format: ADME, organism-based
[26] = Brain concentration in CCI induced thermal hyperalgesia in Sprague-Dawley rat at 1 mg/kg, po measured at 5.5 hrs post dose; format: ADME, organism-based; conditions: read-out: Ct
[27] = Ratio of drug concentration in spinal cord to plasma in CCI induced thermal hyperalgesia in Sprague-Dawley rat at 1 mg/kg, po measured at 5.5 hrs post dose; format: ADME, organism-based
[28] = Ratio of drug concentration in brain to plasma in Sprague-Dawley rat at 3 mg/kg, po measured at 2 hrs post dose; format: ADME, organism-based
[29] = Drug concentration in CCI induced thermal hyperalgesia in Sprague-Dawley rat spinal cord at 1 mg/kg, po measured after 5.5 hrs; format: ADME, organism-based; conditions: read-out: Ct
[30] = Plasma concentration in STZ-induced diabetic peripheral neuropathic mechanical allodynia in overnight fasted Sprague-Dawley rat at 1 mg/kg, po measured at 5.5 hrs post dose; format: ADME, organism-based
[31] = Drug concentration in STZ-induced diabetic peripheral neuropathic mechanical allodynia in overnight fasted Sprague-Dawley rat spinal cord at 1 mg/kg, po measured after 5.5 hrs; format: ADME, organism-based; conditions: read-out: Ct

Sequence of Cytochrome P450 3A4 (P08684 whole entry): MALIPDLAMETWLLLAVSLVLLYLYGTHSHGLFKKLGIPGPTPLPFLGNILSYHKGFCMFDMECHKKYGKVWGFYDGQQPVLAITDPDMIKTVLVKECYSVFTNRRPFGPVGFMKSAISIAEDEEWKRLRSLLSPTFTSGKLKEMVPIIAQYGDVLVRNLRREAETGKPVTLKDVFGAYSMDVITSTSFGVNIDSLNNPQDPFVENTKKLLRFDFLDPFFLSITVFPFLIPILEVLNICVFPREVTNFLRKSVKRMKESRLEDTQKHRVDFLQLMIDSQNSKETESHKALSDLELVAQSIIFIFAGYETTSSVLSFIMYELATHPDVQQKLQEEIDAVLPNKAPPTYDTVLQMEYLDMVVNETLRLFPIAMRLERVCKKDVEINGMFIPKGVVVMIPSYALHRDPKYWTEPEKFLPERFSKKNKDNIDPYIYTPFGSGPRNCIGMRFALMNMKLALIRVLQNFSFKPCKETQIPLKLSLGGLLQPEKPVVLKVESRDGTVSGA
T1 sequence (Q2M2I8 whole entry): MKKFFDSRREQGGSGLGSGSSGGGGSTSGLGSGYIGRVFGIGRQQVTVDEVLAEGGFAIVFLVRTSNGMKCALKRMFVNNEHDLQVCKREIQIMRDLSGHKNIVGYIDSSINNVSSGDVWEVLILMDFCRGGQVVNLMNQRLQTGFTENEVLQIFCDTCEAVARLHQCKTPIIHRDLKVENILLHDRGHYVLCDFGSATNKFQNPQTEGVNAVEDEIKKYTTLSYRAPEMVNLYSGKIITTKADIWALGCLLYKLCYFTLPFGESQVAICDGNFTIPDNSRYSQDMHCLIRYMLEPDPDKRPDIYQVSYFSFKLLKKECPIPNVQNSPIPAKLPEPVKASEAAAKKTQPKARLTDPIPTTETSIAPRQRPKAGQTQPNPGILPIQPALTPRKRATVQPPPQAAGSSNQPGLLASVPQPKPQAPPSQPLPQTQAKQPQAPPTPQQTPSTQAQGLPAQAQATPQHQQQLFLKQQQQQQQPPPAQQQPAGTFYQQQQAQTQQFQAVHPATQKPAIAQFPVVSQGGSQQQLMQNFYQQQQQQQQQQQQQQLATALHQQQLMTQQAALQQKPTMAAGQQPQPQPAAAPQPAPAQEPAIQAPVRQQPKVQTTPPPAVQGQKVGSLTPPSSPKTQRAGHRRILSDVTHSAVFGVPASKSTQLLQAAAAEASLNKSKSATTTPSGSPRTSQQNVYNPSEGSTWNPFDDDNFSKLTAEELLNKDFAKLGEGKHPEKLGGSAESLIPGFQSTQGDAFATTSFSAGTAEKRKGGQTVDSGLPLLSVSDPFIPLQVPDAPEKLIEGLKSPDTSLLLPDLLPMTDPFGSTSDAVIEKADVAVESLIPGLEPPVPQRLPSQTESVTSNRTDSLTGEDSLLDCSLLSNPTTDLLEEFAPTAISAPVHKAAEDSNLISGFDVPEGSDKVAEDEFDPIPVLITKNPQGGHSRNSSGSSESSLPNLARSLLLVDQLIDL
Sequence of AP2-associated protein kinase 1 (Mus musculus, UniProt Q3UHJ0) (Q3UHJ0 whole entry): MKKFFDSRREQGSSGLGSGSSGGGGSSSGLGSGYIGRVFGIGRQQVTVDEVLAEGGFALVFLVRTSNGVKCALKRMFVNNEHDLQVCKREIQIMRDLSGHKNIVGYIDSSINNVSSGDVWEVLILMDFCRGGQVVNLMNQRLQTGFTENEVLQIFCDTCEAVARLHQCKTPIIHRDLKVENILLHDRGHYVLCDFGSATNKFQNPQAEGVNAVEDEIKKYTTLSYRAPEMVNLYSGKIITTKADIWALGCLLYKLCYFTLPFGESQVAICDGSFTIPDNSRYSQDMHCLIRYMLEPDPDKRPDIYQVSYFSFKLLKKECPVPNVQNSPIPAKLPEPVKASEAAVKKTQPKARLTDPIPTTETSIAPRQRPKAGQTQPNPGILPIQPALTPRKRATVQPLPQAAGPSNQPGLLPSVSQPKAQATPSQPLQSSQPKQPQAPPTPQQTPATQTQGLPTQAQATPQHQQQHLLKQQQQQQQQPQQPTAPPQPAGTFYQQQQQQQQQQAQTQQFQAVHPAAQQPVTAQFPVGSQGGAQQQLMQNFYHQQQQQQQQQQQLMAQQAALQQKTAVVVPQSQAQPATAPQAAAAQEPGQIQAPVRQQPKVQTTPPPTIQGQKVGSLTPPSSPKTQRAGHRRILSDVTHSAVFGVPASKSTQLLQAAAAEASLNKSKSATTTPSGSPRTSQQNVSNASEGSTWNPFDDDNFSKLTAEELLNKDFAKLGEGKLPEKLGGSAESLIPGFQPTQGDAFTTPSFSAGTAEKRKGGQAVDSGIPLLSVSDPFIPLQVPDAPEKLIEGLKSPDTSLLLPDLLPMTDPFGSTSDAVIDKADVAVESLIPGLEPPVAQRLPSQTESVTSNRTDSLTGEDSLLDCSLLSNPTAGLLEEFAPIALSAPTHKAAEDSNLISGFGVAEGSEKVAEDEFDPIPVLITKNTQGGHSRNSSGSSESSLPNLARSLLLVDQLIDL
Sequence of Citron Rho-interacting kinase (O14578 whole entry): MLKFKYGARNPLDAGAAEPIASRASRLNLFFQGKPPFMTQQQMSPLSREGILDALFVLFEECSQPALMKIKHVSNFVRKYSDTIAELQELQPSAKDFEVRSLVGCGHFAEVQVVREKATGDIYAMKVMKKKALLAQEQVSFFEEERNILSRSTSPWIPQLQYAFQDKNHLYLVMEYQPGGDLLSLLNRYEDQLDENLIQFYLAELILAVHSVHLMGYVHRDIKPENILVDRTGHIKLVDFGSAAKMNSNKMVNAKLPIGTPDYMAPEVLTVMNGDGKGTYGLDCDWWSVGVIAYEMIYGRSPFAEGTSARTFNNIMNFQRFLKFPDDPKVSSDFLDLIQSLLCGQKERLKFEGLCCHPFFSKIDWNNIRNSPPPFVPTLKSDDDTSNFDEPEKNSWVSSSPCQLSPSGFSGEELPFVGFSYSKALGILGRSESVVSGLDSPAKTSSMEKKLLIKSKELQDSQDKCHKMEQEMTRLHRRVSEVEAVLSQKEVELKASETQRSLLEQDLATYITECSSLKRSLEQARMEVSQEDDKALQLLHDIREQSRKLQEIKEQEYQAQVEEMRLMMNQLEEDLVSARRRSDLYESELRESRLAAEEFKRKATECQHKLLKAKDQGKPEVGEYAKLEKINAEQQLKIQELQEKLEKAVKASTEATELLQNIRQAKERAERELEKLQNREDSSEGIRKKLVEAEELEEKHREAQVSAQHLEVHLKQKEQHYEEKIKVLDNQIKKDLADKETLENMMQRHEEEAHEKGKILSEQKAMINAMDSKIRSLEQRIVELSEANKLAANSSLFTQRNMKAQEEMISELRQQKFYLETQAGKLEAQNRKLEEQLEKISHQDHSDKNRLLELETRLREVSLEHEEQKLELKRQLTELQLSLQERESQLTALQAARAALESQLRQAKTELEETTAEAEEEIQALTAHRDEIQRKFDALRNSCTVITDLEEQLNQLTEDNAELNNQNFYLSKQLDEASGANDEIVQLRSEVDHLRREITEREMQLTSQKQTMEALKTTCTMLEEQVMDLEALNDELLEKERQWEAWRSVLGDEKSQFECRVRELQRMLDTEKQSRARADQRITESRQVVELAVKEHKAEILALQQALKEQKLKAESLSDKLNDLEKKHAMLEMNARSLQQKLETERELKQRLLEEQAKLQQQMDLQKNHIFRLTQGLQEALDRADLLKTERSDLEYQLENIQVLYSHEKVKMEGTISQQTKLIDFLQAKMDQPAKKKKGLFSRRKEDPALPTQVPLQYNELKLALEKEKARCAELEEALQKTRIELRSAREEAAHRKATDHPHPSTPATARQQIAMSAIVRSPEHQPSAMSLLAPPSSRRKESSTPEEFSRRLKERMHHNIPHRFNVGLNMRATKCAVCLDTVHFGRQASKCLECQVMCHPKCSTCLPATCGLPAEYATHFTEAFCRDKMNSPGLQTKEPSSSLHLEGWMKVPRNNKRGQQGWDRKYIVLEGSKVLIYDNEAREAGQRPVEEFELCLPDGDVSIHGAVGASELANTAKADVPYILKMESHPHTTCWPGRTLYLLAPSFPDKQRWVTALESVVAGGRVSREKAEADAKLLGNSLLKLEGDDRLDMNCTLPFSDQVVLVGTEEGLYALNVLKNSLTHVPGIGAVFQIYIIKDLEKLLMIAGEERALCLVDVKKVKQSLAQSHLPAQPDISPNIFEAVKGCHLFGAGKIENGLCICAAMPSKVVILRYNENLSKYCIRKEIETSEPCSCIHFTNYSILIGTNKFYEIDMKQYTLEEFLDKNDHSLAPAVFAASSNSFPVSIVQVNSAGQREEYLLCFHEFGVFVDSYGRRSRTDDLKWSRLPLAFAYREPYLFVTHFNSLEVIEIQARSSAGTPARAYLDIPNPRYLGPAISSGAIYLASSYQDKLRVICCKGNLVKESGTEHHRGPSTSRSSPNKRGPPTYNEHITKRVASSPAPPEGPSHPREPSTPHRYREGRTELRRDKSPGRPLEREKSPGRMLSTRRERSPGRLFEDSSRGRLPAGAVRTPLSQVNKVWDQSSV
Sequence of MAP kinase-interacting serine/threonine-protein kinase 1 (Q9BUB5 whole entry): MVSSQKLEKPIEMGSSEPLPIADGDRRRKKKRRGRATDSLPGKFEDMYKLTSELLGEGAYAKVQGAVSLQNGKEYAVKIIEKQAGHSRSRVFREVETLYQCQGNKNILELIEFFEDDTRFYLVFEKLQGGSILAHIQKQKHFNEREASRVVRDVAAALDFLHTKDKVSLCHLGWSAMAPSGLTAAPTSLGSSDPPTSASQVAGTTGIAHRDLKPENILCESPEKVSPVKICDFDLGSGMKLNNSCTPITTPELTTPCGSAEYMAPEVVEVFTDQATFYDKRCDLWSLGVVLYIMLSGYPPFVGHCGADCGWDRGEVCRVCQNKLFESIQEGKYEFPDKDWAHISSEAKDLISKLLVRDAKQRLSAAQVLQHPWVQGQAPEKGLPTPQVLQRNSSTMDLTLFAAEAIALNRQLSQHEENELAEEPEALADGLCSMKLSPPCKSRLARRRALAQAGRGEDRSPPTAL

| Compound | Ki [1] [nM] | IC50 [3] [nM] | remaining at 10 min, 0.5 µM [4] [%] | remaining at 10 min, 0.5 µM [5] [%] | remaining at 10 min, 0.5 µM [6] [%] | IC50 (Cytochrome P450 3A4) [nM] | IC50 [11] [nM] | other results |
| --- | --- | --- | --- | --- | --- | --- | --- | --- |
| COc1cc(-c2ccnc(NC(C)=O)c2)ccc1OC[C@@H](N)CC(C)C | 0.96 | 3.8 | 96 | 58 | 92 | 6900 | – | efflux ratio [2]: 4.2 |
| COC(=O)Nc1cc(-c2cc(C)c(OC[C@@](C)(N)CC(C)C)cn2)ccn1 | 1.4 | 12 | 100 | 99 | 100 | 13000 | 1.7 | IC50 [7]: 1800 nM; IC50 [8]: 600 nM; IC50 [9]: 690 nM; IC50 [10]: 1300 nM; Activity [12]: 38%; IC50 [13]: 60 nM; IC50 [14]: 780 nM |
| Cc1cc(-c2cc(Cl)c(OC[C@@](C)(N)CC(C)C)cn2)ccn1 | 0.7 | 1.9 | 86 | 71 | 73 | > 20000 | – | IC50 [15]: 1500 nM; IC50 [10]: 1900 nM; Activity [12]: 50%; IC50 [13]: 1300 nM |
| CC(C)C[C@](C)(N)COc1ccc(-c2ccnc(C(F)F)c2)nc1C(F)F [PILAVAPADIN] | – | – | – | – | – | – | – | concentration at 5.75 h [16]: 245 nM; concentration at 5.75 h [17]: 84 nM; Kp at 5.75 h [18]: 2.9 |
| COC(=O)Nc1cc(-c2cnc(OC[C@@](C)(N)CC(C)C)c(OC)c2)ccn1 (racemic) | 2.5 | – | 86 | 59 | 79 | > 20000 | 3.8 | Activity [12]: 91% |
| CC(=O)Nc1cc(-c2ccc(OC[C@@H](N)CC(C)C)c(F)c2)ccn1 | 0.52 | 1.6 | 90 | 79 | 80 | 8900 | 2.6 | concentration at 5.5 h [19]: 270 nM; Kp at 5.5 h [20]: 1; Activity (Rattus norvegicus [21]): 65%; concentration at 5.5 h [22]: 190 nM; Activity (Rattus norvegicus [23]): 56%; Kp at 5.5 h [24]: 0.8; Kp at 5.5 h [25]: 1.2; concentration at 5.5 h [26]: 320 nM; Kp at 5.5 h [27]: 1; Kp at 2 h [28]: 1.5; concentration at 5.5 h [29]: 270 nM; concentration at 5.5 h [30]: 190 nM; concentration at 5.5 h [31]: 150 nM |
| CC(=O)Nc1cc(-c2ccc(OC[C@@H](N)CC(C)C)c(C#N)c2)ccn1 | 0.04 | 0.5 | 87 | 84 | 83 | 2600 | – | efflux ratio [2]: 6.3; Kp at 2 h [28]: 0.45 |
| CC(=O)Nc1cc(-c2ccc(OC[C@@](C)(N)CC(C)C)c(C#N)c2)ccn1 | 0.09 | 0.6 | 64 | 71 | 78 | > 20000 | 0.6 | efflux ratio [2]: 2.5 |
| CC(=O)Nc1cc(-c2cc(F)c(OC[C@@H](N)CC(C)C)c(C(F)(F)F)c2)ccn1 | 1.5 | 4.8 | 74 | 69 | 91 | 470 | 5 | – |
| COC(=O)Nc1cc(-c2ccc(OC[C@@](C)(N)CC(C)C)c(C(F)F)c2)ccn1 | 0.04 | 0.6 | 88 | 69 | 86 | > 20000 | 0.5 | – |
| CC(=O)Nc1cc(-c2ccc(OC[C@@H](N)CC(C)C)c(C(F)(F)F)c2)ccn1 | 0.04 | 0.75 | 91 | 53 | 82 | 330 | 0.4 | – |
| COC(=O)Nc1cc(-c2ccc(OC[C@@](C)(N)CC(C)C)c(OC(F)(F)F)c2)ccn1 | 0.04 | 0.2 | 81 | 43 | 83 | 7800 | 0.6 | – |
| CC(=O)Nc1cc(-c2cc(F)c(OC[C@@H](N)CC(C)C)cc2F)ccn1 | 0.6 | 6.7 | 78 | 70 | 90 | 7000 | 1.3 | – |
| COC(=O)Nc1cc(-c2ccc(OC[C@@](C)(N)CC(C)C)c(C(F)(F)F)c2)ccn1 | 0.05 | 1.5 | 80 | 68 | 74 | 6900 | 0.3 | – |
| COC(=O)Nc1cc(-c2ccc(OC[C@@H](N)CC(C)C)c(-c3ccno3)c2)ccn1 | 0.08 | 4.1 | 91 | 53 | 76 | 180 | 0.8 | – |
| COC(=O)Nc1cc(-c2ccc(OC[C@@](C)(N)CC(C)C)c(C3CC3)c2)ccn1 | 0.05 | 1 | 100 | 33 | 80 | 16300 | 0.4 | – |
